Data on 6 substances can be found in patent US5952464A, “Labelled peptide compounds” (Mallinckrodt Inc., priority 1994, dated 1999).

Data set [1] has as its target neurotensin receptor sites. Nature of the data set: inhibition of [3H]neurotensin binding to guinea pig forebrain membranes. Here is the method: Binding assays are performed by studying the inhibition of [^3 H]neurotensin binding to guinea pig forebrain membranes. The following results are obtained, using the unlabelled acetyl compound […]-OH (SEQ ID NO:4) (a) as the reference.

Data set [2] is described as follows: enzymatic stability in vitro in human serum. The class given is in vitro ADME. As for the experimental part:
The enzymatic stability of the four radioiodinated analogues (1), (2), (3) and (4) is determined in vitro in human serum in a conventional manner, showing that this stability is sufficient.

Data set [3] has as its target rat brain synaptic membranes. Particulars: binding on rat brain synaptic membranes; cited from earlier work.
In data set [4] the test system is human brain neurotensin receptors. To be noted: cited from earlier work.
For data set [5] the following is noted: cited from earlier work.

“(4*I-phenyl)acetyl-^1 Arg-^2 Arg-^3 Pro-^4 Tyr-^5 -Ile-^6 Leu-OH [(2)]”: the negative-log IC50 (pIC50) (commonly −log10 of the IC50, conventionally taken in molar units) in data set [1] is 7.87. The enzymatic stability entry in data set [2] was “sufficient”.

“(2-*I-phenyl)acetyl-^1 Arg-^2 Arg-^3 Pro-^4 Tyr-^5 Ile-^6 Leu-OH [(1)]” yielded a pIC50 in data set [1] of 8.05. In addition, in data set [2], the enzymatic stability entry is on record as “sufficient”.

“4-*I-benzoyl-^1 Arg-^2 Arg-^3 Pro-^4 Tyr-^5 Ile-^6 Leu-OH [(4)]”: in data set [1], the negative logarithm of the IC50 (pIC50) is listed as 8.10. In addition, the enzymatic stability result in data set [2] is given as “sufficient”.

On to “monoiodo-[Trp^11 ]-neurotensin (QLYENKPRRPWIL; Neurotensin 125I on Tyr3; UniProt P30990 151-163, looked up, variant Y11W) [monoiodo-[Trp11]-neurotensin]”, for which, in data set [3], the dissociation constant (Kd) (commonly the free concentration of one partner at which half of the binding sites on the other are occupied at equilibrium, for simple one-to-one binding) was 0.1 nM. Besides, in data set [4] (preliminary experiments, Sadoul et al. 1984), the “affinity of neurotensin receptors in human brain” value is “low affinity”. The in vivo half-life entry in data set [5] is “only a few minutes”.

The substance “2-*I-benzoyl-^1 Arg-^2 Arg-^3 Pro-^4 Tyr-^5 Ile-^6 Leu-OH [(3)]” came in with a pIC50 in data set [1] of 8.07. In addition, in data set [2], the enzymatic stability entry is listed as “sufficient”.

Turning to “mono-iodo derivative of neurotensin: mono-iodo derivative of neurotensin itself; only tyrosine-3 iodinated with 125-iodide”, the dissociation constant (Kd) in data set [3] is 0.2 nM; in data set [4] (binding to human brain neurotensin receptors), 0.26 nM. In data set [5], the in vivo half-life result is reported as “only a few minutes”.
